Where a name gives a salt, the structure may show the parent alone.
Tested on: postoperative pain model of rats
Experiment: Postoperative pain model of rats (foot sole pain model), von Frey filament test
Assay type: in vivo, male Wistar rats
Description: A pentobarbital sodium injection (Nembutal injection, made by Sumitomo Dainippon Pharma Co., Ltd.) (0.3 mL) was intraperitoneally administered to male Wistar rats for anesthesia. Thereafter, a skin incision was made with a No. 11 scalpel blade (made by FEATHER Safety Razor Co., Ltd.) longitudinally at a position of 5 mm from the heel of the left foot bottom. The plantaris muscle was taken out from the incision site, followed by longitudinal incision. Subsequently, the skin was subjected to a knotted suture with a 5-0 nylon thread by double stitches. Moreover, a […] was applied in a single layer thereonto so as not to permit the administered controlled-release preparation to leak. […] More particularly, using the von Frey hair set (commercial name: Touch-Test, made by North Coast Medical Inc.) requiring a given stress before bending, this was pressed against the operated site of rats vertically from beneath the mesh of a gauge wherein rats were accommodated, whereupon a stress (a withdrawal threshold against mechanical stimuli) was determined at the time when the rat raised paws in surprise. […] Using the postoperative pain model of rat set out above, the analgesic effect of the bupivacaine hydrochloride-containing, controlled-release preparation of Example 1 was evaluated according to the von Frey filament test. […]

Compound	analgesic effect (increase of threshold value) (bupivacaine hydrochloride itself (stock solution), similar postoperative pain model of rats)	analgesic effect (increase of threshold value) (ropivacaine hydrochloride itself (stock solution), similar postoperative pain model of rat)
CCCCN1CCCCC1C(=O)Nc1c(C)cccc1C (centres unmarked) [bupivacaine hydrochloride, Bupivacaine hydrochloride]	no analgesic effect was obtained even at the postoperative first day	
CCCN1CCCC[C@H]1C(=O)Nc1c(C)cccc1C [ropivacaine hydrochloride, Ropivacaine hydrochloride]		no analgesic effect was obtained even at the postoperative first day

Reference: US9724300B2, “Long-lasting, controlled-release local anesthetic liposome preparation” (Terumo Kabushiki Kaisha, priority 2012, dated 2017)
